As a reminder, the IC50 is the midpoint of a concentration-inhibition curve.

Structures are written as SMILES.

These results are taken from patent US5364776A, “Method of hydroxylating 3-[3-(5-ethyl-2-methoxy-6-methylpyridyl)methyl]amino-5-ethyl-6-methyl-2( 1H)-pyridinone with liver slices” (Merck & Co., Inc., priority 1992, dated 1994).

Data set [1] concerns the target T1, recombinant HIV reverse transcriptase (HIV RTR) (Human immunodeficiency virus type 1 group M subtype B, UniProt P04585).
T1 construct: recombinant HIV reverse transcriptase (HIV RTR)
Put plainly: Reverse transcriptase assay: incorporation of tritiated deoxyguanosine monophosphate into acid-precipitable cDNA by recombinant HIV reverse transcriptase. The class given is biochemical. Conditions: poly r(C).oligo d(G)12-18 template, [3H]dGTP, pH 8.2 buffer, 37° C., 45 minutes. As to the method:
The assay measures the incorporation of tritiated deoxyguanosine monophosphate by recombinant HIV reverse transcriptase (HIV RTR) (or other RT) into acid-precipitable cDNA at the Km values of dGTP and poly r(C).cndot.oligo d(G)12-18.
Thirty uL of a reaction mixture containing equal volumes of: 500 mM Tris.cndot.HCl (pH 8.2), 300 mM MgCl2, 1200 mM KCl, 10 mM DTT, 400 μg/mL poly r(c).cndot.oligo d(G) [prepared by dissolving 1.5 mg (25 U) poly r(C).cndot.oligo d(G) in 1.5 ml sterile distilled H2 O and diluting to 400 μg/ml], 0.1 μCi/μl [^3 H]dGTP, 160 μM dGTP, was added to 10 μl sterile distilled H2 O, and 2.5 μl of potential inhibitor. An aliquot of 10 μL of 5 nM purified HIV RTR was added to initiate the reaction. The mixture was incubated at 37° C. for 45 minutes.
After incubation is complete, the tubes were cooled in ice for 5 minutes. Ice-cold 13% TCA containing 10 mM NaPPi (200 μl) are added and the mixture incubated on ice for 30 minutes. The precipitated cDNA is removed by filtration using presoaked glass filters [TCA, NaPPi ]. The precipitate is then washed with 1N HCl, 10 mM NaPPi.
The filter discs are then counted in a scintillation counter.
Under these conditions [dGTP] and poly r(C).cndot.oligo d(G)12-18 each are approximately equal to the appropriate Km value. Approximately 5-6,000 cpm of [^3 H] GMP are incorporated into acid-precipitable material. The RT reaction is concentration- and time-dependent. […] The calculated IC50 values for the compounds of this invention are as follows: […]

Data set [2] is described as follows: In vitro metabolism of compound II with rat liver slices. Type of data set: in vitro ADME. The settings on record: 157.7 μM, four hours, 37° C., pH 7.4, HPLC photodiode array-UV. The procedure: Compound II (157.7 μM) was incubated with rat liver slices (10.17 g wet weight, 250-400 μ thick, ~1.2 cm wide) in 100 ml of Williams' Medium E at pH 7.4 and at 37° C. under an atmosphere of 95% oxygen and 5% carbon dioxide. After four hours the incubation mixture was extracted with ethyl acetate. The extract was evaporated to dryness and the residue reconstituted in methanol. The reconstitute was subjected to preparative HPLC on a reverse-phase column with an on-line UV-diode array detector. Three major metabolites--Ia, Ib and Ic--were isolated for characterization by NMR spectroscopy and mass spectrometry.
The three major products were identified by proton NMR (500 MHz; see Table below) and mass spectrometry as resulting from α-hydroxylation of the ethyl group on the pyridinone (HPLC Peak designating compound Ia), and β- and α-hydroxylation of the ethyl group on the pyridine (designated compounds Ic and Ib, respectively). [drawing 14]

`CCc1cc(NCc2cc(CC)c(C)nc2OC)c(O)nc1C` [Compound II, 3-[3-(5-ethyl-2-methoxy-6-methylpyridyl)methyl]amino-5-ethyl-6-methyl-2(1H)-pyridinone]: in data set [1], the 50% inhibitory concentration (IC50) turned out to be 29 nM. In data set [2], the “number of major products (metabolites) formed” value is “three” and the “number of minor products formed” value is listed as “at least 5”.

For `CCc1cc(CNc2cc(C(C)O)c(C)[nH]c2=O)c(OC)nc1C` (stereo not drawn) [Ia, 3-[3-(5-ethyl-2-methoxy-6-methylpyridyl)methyl]amino-5-(1-hydroxy)ethyl-6-m ethyl-2(1H )-pyridinone], the IC50 in data set [1] was found to be 195 nM.

As for `CCc1cc(NCc2cc(C(C)O)c(C)nc2OC)c(=O)[nH]c1C` (stereo not drawn) [Ib, 3-[3-(5-(1-hydroxy)ethyl-2-methoxy-6-methylpyridyl)methyl]amino-5-ethyl-6-m ethyl-2(1H)-pyridinone], the IC50 in data set [1] was 390 nM.

Take `CCc1cc(NCc2cc(CCO)c(C)nc2OC)c(=O)[nH]c1C` [Ic, 3-[3-(5-(2-hydroxy)ethyl-2-methoxy-6-methylpyridyl)-methyl]amino-5-ethyl-6-methyl-2(1H)-pyridinone]: the IC50 in data set [1] is 250 nM.
